Measured values published in PubChem BioAssay AID449750 (Broad Institute, 2010).
Active and inactive are the calls of the source. The rule behind the calls is not given here.

Assay: non-covalent RecA intein splicing inhibitors, dose response, biochemical, cell-free, fluorescence, secondary screen (AID 449750)

SMILES	AC50
C/C(CC(=O)NCc1ccco1)=N\NC(=O)c1ccc([N+](=O)[O-])cc1Cl	> 38 µM (inactive)
COC(=O)CSc1nc(N)c2c3c(sc2n1)C(c1ccccc1)SC(c1ccccc1)C3 (centres undefined)	> 38 µM (inactive)
O=C(O)CN1C(=O)/C(=C\c2cccc(OCc3ccc(Cl)cc3Cl)c2)SC1=S	6.45 µM
Cc1cccc(C)c1-n1cccc1/C=C1\SC(=S)N(c2cccc(C(=O)O)c2)C1=O	7.18 µM
Cn1c(=O)[nH]c(=O)c2c1nc([N+](=O)[O-])n2Cc1ccccc1	> 38 µM (inactive)
CC(C)NC(=S)NC1(C)CCS(=O)(=O)C1 (centres undefined)	> 38 µM (inactive)
Cc1ccc(C2CC(c3cccs3)=NN2C(=O)CCl)cc1 (centres undefined)	1.68 µM
COc1ccc(N(C(=O)c2ccco2)S(=O)(=O)c2cccs2)cc1	> 38 µM (inactive)
CCOC(=O)c1cc(C)sc1NC(=O)CSC1=NCCS1	19.6 µM
COc1ccc(/C=C2/C(=O)N(c3ccccc3)N=C2C)c(OC)c1	18.5 µM
O=C1C2=C(NC(=S)NC2c2ccc(Cl)cc2)NC(c2ccc(Cl)cc2)N1c1ccc(Cl)cc1 (centres undefined)	4.62 µM
O=C(CCN1C(=O)/C(=C\c2ccccc2F)SC1=S)Nc1ccc(C(=O)O)c(O)c1	14.7 µM
Cc1[nH]nc2c1C(c1ccc(OC(=O)c3ccco3)cc1)C(C#N)=C(N)O2 (centres undefined)	> 38 µM (inactive)
C/C(CC(=O)Nc1ccccc1[N+](=O)[O-])=N\NC(=O)COc1ccccc1C	> 38 µM (inactive)
CC1(C)Cc2ccccc2C2=NNC(=O)C2=N1	11 µM
COC(=O)c1c(NC(=O)/C=C/C(=O)O)sc(C)c1-c1ccc(C(C)C)cc1	11.6 µM
CCOC(=O)C(Nc1ccc2ccccc2c1)C(=O)OCC	38.5 µM
O=C(/C=C/c1ccccc1)c1ccc2c3c(cccc13)CC2	3.7 µM
CCCc1[nH]nc2c1C(c1ccc(OC(=O)c3ccco3)cc1)C(C#N)=C(N)O2 (centres undefined)	> 38 µM (inactive)
COc1cc(C(C(=O)NC2CCCCC2)N(CCN2CCOCC2)C(=O)C2COc3ccccc3O2)cc(OC)c1OC (centres undefined)	> 38 µM (inactive)
CCCCCc1cc(=O)oc2c(C(CCN3CCCC(C)C3)c3ccc4c(c3)OCO4)c(OC)cc(OC)c12 (centres undefined)	10.5 µM
O=C(CCl)N(c1ccccc1)c1ccccc1	5.75 µM

SMILES	AC50
Oc1ccc(Nc2nc(-c3ccc4ccccc4c3)cs2)cc1	> 38 µM (inactive)
CCc1cc(C(=O)c2ccc(C)cc2)c(NC(=O)CCl)s1	2.62 µM
CCOC(=O)c1[nH]c(=O)c2ccccc2c1O	2.65 µM
O=C(CCCN1C(=O)/C(=C\c2cccs2)SC1=S)Nc1ccc(O)cc1	> 38 µM (inactive)
O=C(CCl)c1ccc2c(c1)CCN2C(=O)C1CCCCC1	> 38 µM (inactive)
Cc1cc(=O)n(-c2ccc(O)cc2)[nH]1	7.46 µM
O=C1C2=C(c3ccccc31)[N+](=O)C1CCCCC1N2[O-] (centres undefined)	18.3 µM
CCCc1[nH]nc2c1C(c1ccc(OC(=O)N3CCOCC3)cc1)C(C#N)=C(N)O2 (centres undefined)	> 38 µM (inactive)
CN(C1=C(NC(=O)c2ccc(Cl)cc2)C(=O)c2ccccc2C1=O)c1ccccc1	15 µM
O=C(Nc1ccccc1)NN(C(=O)CCl)c1ccccc1	6.12 µM
O=[N+]([O-])c1cccc2c([As](=O)(O)O)cccc12	> 38 µM (inactive)
COc1ccc(-c2cc(C(F)(F)F)nc(S(=O)(=O)CCCC(=O)Nc3cccc(O)c3)n2)cc1OC	> 38 µM (inactive)
CSc1ccc(C(c2c(C)[nH][nH]c2=O)c2c(C)[nH][nH]c2=O)cc1	7.2 µM
C/C(CC(=O)Nc1cccnc1)=N\NC(=O)c1ccc([N+](=O)[O-])c(Cl)c1	> 38 µM (inactive)
CCN(C(=O)CSc1ncccc1C(=O)Oc1cccc([N+](=O)[O-])c1)c1cccc(C)c1	> 38 µM (inactive)
COc1ccc(N2C(=O)C(Cl)=C(N3CCOCC3)C2=O)cc1	> 38 µM (inactive)
CC(NC(=O)/C(C#N)=C/c1ccc([N+](=O)[O-])o1)c1ccccc1 (centres undefined)	> 38 µM (inactive)
O=C(O)c1ccc([N+](=O)[O-])c2c1C(=O)c1ccccc1C2=O	> 38 µM (inactive)
CC(C)(C)c1cnnn1-c1ccc(C(=O)CCl)cc1	> 38 µM (inactive)
COc1ccc(NC(=S)Nc2ccc3nsnc3c2)cc1	25.2 µM
O=C1C(=O)c2ccccc2C([O-])=C1[n+]1ccccc1	28.5 µM
Cc1cccc(NC(=S)N/N=C2/CCCCc3ccccc32)c1	> 38 µM (inactive)
